# Numbered stars: 1 amine (or outer) side, 2 acyl side, 3 side chain; on linkers, the order of the positions; unused ones are H or OH. Bridge positions count the residues as written; N and C are the ends. Square brackets hold non-standard residues; d marks the D form. Peptide text beside a SMILES is read from it. * marks the point of attachment. ξ: configuration not given here. TtdsdLys(DOTA)NH2 = NC(=O)[C@@H](CCCCNC(=O)CN1CCN(CC(=O)O)CCN(CC(=O)O)CCN(CC(=O)O)CC1)NC(=O)CCC(=O)NCCCOCCOCCOCCCN*; DOTA = O=C(O)CN1CCN(CC(=O)O)CCN(CC(=O)*)CCN(CC(=O)O)CC1; Phe(4-CF3) = N[C@@H](Cc1ccc(C(F)(F)F)cc1)C(=O)O; Trp(5-F) = N[C@@H](Cc1c[nH]c2ccc(F)cc12)C(=O)O; Phe(2-CF3) = N[C@@H](Cc1ccccc1C(F)(F)F)C(=O)O; Trp(7-aza) = N[C@@H](Cc1c[nH]c2ncccc12)C(=O)O; Pro(trans-4-F) = O=C(O)[C@@H]1C[C@@H](F)CN1; 2Nal = N[C@@H](Cc1ccc2ccccc2c1)C(=O)O; Nva(3-Et) = CCC(CC)[C@H](N)C(=O)O; ξThr(3R) = C[C@@H](O)C(N)C(=O)O; Cha = N[C@@H](CC1CCCCC1)C(=O)O; Cba = N[C@@H](CC1CCC1)C(=O)O; Chg = N[C@H](C(=O)O)C1CCCCC1; Nle = CCCC[C@H](N)C(=O)O; CH2 = C([*:1])[*:2]
# Target: T1, human DLL3 (Homo sapiens, UniProt Q9NYJ7)
# T1 sequence (Q9NYJ7 27-618): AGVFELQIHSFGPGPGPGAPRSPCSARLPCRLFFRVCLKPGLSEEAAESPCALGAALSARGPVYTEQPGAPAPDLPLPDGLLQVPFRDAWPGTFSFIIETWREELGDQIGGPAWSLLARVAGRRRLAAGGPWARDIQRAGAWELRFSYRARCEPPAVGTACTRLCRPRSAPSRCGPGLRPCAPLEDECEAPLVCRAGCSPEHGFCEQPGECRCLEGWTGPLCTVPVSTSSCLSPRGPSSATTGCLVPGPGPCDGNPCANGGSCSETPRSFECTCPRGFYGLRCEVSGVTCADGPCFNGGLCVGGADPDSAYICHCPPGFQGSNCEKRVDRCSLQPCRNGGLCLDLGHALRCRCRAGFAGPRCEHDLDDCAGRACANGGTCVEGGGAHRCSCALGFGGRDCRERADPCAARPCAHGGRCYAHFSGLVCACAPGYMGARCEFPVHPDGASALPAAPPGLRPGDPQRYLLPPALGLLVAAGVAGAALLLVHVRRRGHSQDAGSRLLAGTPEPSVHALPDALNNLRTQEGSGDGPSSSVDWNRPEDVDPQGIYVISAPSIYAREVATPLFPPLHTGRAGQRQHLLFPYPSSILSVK
# Assay: Affinity determination by Surface Plasmon Resonance (SPR)
# Type: binding
# Settings: 25° C., biotinylated human DLL3 immobilized on streptavidin sensor chip, 1:1 binding model; read-out: SPR KD
# Summary of the method: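 Kinetic and affinity constants were derived by fitting sensorgrams to a 1:1 binding model. Graded compound concentrations flowed at 100 μL/minute in 20 mM phosphate running buffer with 2% DMSO over streptavidin-immobilized biotinylated human DLL3, reference-subtracted.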
row,Kd [nM],SMILES
1,1 to 10,"CCCC[C@H](NC(=O)[C@@H](NC(=O)[C@H](Cc1c[nH]c2ccc(F)cc12)NC(C)=O)[C@@H](C)O)C(=O)N[C@H]1CSSC[C@@H](C(=O)N[C@@H](Cc2c[nH]c3ncccc23)C(=O)N2C[C@H](F)C[C@H]2C(=O)N[C@H](CCCCNC(=O)CN2CCN(CC(=O)O)CCN(CC(=O)O)CCN(CC(=O)O)CC2)C(N)=O)NC(=O)[C@H](CC(=O)O)NC(=O)[C@H](Cc2c[nH]cn2)NC(=O)[C@H](Cc2ccc(C(F)(F)F)cc2)NC(=O)[C@H](CC(N)=O)NC(=O)[C@H](CC(N)=O)NC1=O [compound 148, Ac-(5Fluoro-W)-T-(Nle)-C(3)-N-N-(4CF3-F)-H-D-C(3)-(7Aza-W)-(trans4Fluoro-P)-[D-Lys(DOTA)]-NH2] (Ac-[Trp(5-F)]T[Nle]CNN[Phe(4-CF3)]HDC[Trp(7-aza)][Pro(trans-4-F)][dK](DOTA)-NH2; disulfide 4-10)"
2,1 to 10,"CC(=O)N[C@@H](Cc1c[nH]c2ccc(F)cc12)C(=O)N[C@H](C(=O)N[C@H](C(=O)N[C@H]1CSSC[C@@H](C(=O)N[C@@H](Cc2c[nH]c3ncccc23)C(=O)N2C[C@H](F)C[C@H]2C(=O)N[C@H](CCCCNC(=O)CN2CCN(CC(=O)O)CCN(CC(=O)O)CCN(CC(=O)O)CC2)C(N)=O)NC(=O)[C@H](CC(=O)O)NC(=O)[C@H](Cc2cnc[nH]2)NC(=O)[C@H](Cc2ccc(C(F)(F)F)cc2)NC(=O)[C@H](CC(N)=O)NC(=O)[C@H](CC(N)=O)NC1=O)C1CCCCC1)[C@@H](C)O [compound 151, Ac-(5Fluoro-W)-T-(Chg)-C(3)-N-N-(4CF3-F)-H-D-C(3)-(7Aza-W)-(trans4Fluoro-P)-[D-Lys(DOTA)]-NH2] (Ac-[Trp(5-F)]T[Chg]CNN[Phe(4-CF3)]HDC[Trp(7-aza)][Pro(trans-4-F)][dK](DOTA)-NH2; disulfide 4-10)"
3,1 to 10,"CC[C@H](C)[C@H](NC(=O)[C@@H](NC(=O)[C@H](Cc1c[nH]c2ccccc12)NC(C)=O)[C@@H](C)O)C(=O)N[C@H]1CSCSC[C@@H](C(=O)N[C@@H](Cc2c[nH]c3ccccc23)C(=O)N2CCC[C@H]2C(=O)N[C@H](CCCCNC(=O)CN2CCN(CC(=O)O)CCN(CC(=O)O)CCN(CC(=O)O)CC2)C(N)=O)NC(=O)[C@H](CC(=O)O)NC(=O)[C@H](Cc2cnc[nH]2)NC(=O)[C@H](Cc2c[nH]c3ccccc23)NC(=O)[C@H](CC(N)=O)NC(=O)[C@H](CC(N)=O)NC1=O [compound 164, Ac-WTI-C(1)-NNWHD-C(1)-WP-[D-Lys(DOTA)]-NH2] (Ac-WTICNNWHDCWP[dK](DOTA)-NH2; linker 4-10 via CH2)"
4,< 1,"CC[C@H](C)[C@H](NC(=O)[C@@H](NC(=O)[C@H](Cc1c[nH]c2ccccc12)NC(C)=O)[C@@H](C)O)C(=O)N[C@H]1CSSC[C@@H](C(=O)N[C@@H](Cc2c[nH]c3ccccc23)C(=O)N2CCC[C@H]2C(=O)NCC(=O)NCC(=O)NCCCOCCOCCOCCCNC(=O)CCC(=O)N[C@H](CCCCNC(=O)CN2CCN(CC(=O)O)CCN(CC(=O)O)CCN(CC(=O)O)CC2)C(N)=O)NC(=O)[C@H](CC(=O)O)NC(=O)[C@H](Cc2cnc[nH]2)NC(=O)[C@H](Cc2ccc3ccccc3c2)NC(=O)[C@H](CC(N)=O)NC(=O)[C@H](CC(N)=O)NC1=O [compound 167, Ac-W-T-I-C(3)-N-N-(2Nal)-H-D-C(3)-W-P-G-G-TTDS-[D-Lys(DOTA)]-NH2] (Ac-WTICNN[2Nal]HDCWPGG-{TtdsdLys(DOTA)NH2}; disulfide 4-10)"
5,< 1,"CCC(CC)[C@H](NC(=O)C(NC(=O)[C@H](Cc1c[nH]c2ccccc12)NC(C)=O)[C@@H](C)O)C(=O)N[C@H]1CSSC[C@@H](C(=O)N[C@@H](Cc2c[nH]c3ncccc23)C(=O)N2CCC[C@H]2C(=O)N[C@H](CCCCNC(=O)CN2CCN(CC(=O)O)CCN(CC(=O)O)CCN(CC(=O)O)CC2)C(N)=O)NC(=O)[C@H](CC(=O)O)NC(=O)[C@H](Cc2cnc[nH]2)NC(=O)[C@H](Cc2ccc3ccccc3c2)NC(=O)[C@H](CC(N)=O)NC(=O)[C@H](CC(N)=O)NC1=O (stereo partly drawn) [compound 193, Ac-W-T-(Env)-C(3)-N-N-(2Nal)-H-D-C(3)-(7-Aza-W)-P-[D-Lys(DOTA)]-NH2] (Ac-W[ξThr(3R)][Nva(3-Et)]CNN[2Nal]HDC[Trp(7-aza)]P[dK](DOTA)-NH2; disulfide 4-10)"
6,< 1,"CC(=O)N[C@@H](Cc1c[nH]c2ccccc12)C(=O)NC(C(=O)N[C@H](C(=O)N[C@H]1CSSC[C@@H](C(=O)N[C@@H](Cc2c[nH]c3ncccc23)C(=O)N2CCC[C@H]2C(=O)N[C@H](CCCCNC(=O)CN2CCN(CC(=O)O)CCN(CC(=O)O)CCN(CC(=O)O)CC2)C(N)=O)NC(=O)[C@H](CC(=O)O)NC(=O)[C@H](Cc2cnc[nH]2)NC(=O)[C@H](Cc2ccc3ccccc3c2)NC(=O)[C@H](CC(N)=O)NC(=O)[C@H](C)NC1=O)C1CCCCC1)[C@@H](C)O (stereo partly drawn) [compound 194, Ac-W-T-(Chg)-C(3)-A-N-(2Nal)-H-D-C(3)-(7-Aza-W)-P-[D-Lys(DOTA)]-NH2] (Ac-W[ξThr(3R)][Chg]CAN[2Nal]HDC[Trp(7-aza)]P[dK](DOTA)-NH2; disulfide 4-10)"

# Continued, molecule first:
row,SMILES,Kd [nM]
1,"CC(=O)N[C@@H](Cc1c[nH]c2ccc(F)cc12)C(=O)N[C@H](C(=O)N[C@@H](CC1CCCCC1)C(=O)N[C@H]1CSSC[C@@H](C(=O)N[C@@H](Cc2c[nH]c3ncccc23)C(=O)N2C[C@H](F)C[C@H]2C(=O)N[C@H](CCCCNC(=O)CN2CCN(CC(=O)O)CCN(CC(=O)O)CCN(CC(=O)O)CC2)C(N)=O)NC(=O)[C@H](CC(=O)O)NC(=O)[C@H](Cc2cnc[nH]2)NC(=O)[C@H](Cc2ccc(C(F)(F)F)cc2)NC(=O)[C@H](CC(N)=O)NC(=O)[C@H](CC(N)=O)NC1=O)[C@@H](C)O [compound 149, Ac-(5Fluoro-W)-T-(CHA)-C(3)-N-N-(4CF3-F)-H-D-C(3)-(7Aza-W)-(trans4Fluoro-P)-[D-Lys(DOTA)]-NH2] (Ac-[Trp(5-F)]T[Cha]CNN[Phe(4-CF3)]HDC[Trp(7-aza)][Pro(trans-4-F)][dK](DOTA)-NH2; disulfide 4-10)",1 to 10
2,"CC(=O)N[C@@H](Cc1c[nH]c2ccc(F)cc12)C(=O)N[C@H](C(=O)N[C@@H](CC1CCC1)C(=O)N[C@H]1CSSC[C@@H](C(=O)N[C@@H](Cc2c[nH]c3ncccc23)C(=O)N2C[C@H](F)C[C@H]2C(=O)N[C@H](CCCCNC(=O)CN2CCN(CC(=O)O)CCN(CC(=O)O)CCN(CC(=O)O)CC2)C(N)=O)NC(=O)[C@H](CC(=O)O)NC(=O)[C@H](Cc2cnc[nH]2)NC(=O)[C@H](Cc2ccc(C(F)(F)F)cc2)NC(=O)[C@H](CC(N)=O)NC(=O)[C@H](CC(N)=O)NC1=O)[C@@H](C)O [compound 150, Ac-(5Fluoro-W)-T-(CBA)-C(3)-N-N-(4CF3-F)-H-D-C(3)-(7Aza-W)-(trans4Fluoro-P)-[D-Lys(DOTA)]-NH2] (Ac-[Trp(5-F)]T[Cba]CNN[Phe(4-CF3)]HDC[Trp(7-aza)][Pro(trans-4-F)][dK](DOTA)-NH2; disulfide 4-10)",1 to 10
3,"CC(=O)N[C@@H](Cc1c[nH]c2ccc(F)cc12)C(=O)N[C@H](C(=O)N[C@@H](Cc1ccccc1C(F)(F)F)C(=O)N[C@H]1CSSC[C@@H](C(=O)N[C@@H](Cc2c[nH]c3ncccc23)C(=O)N2C[C@H](F)C[C@H]2C(=O)N[C@H](CCCCNC(=O)CN2CCN(CC(=O)O)CCN(CC(=O)O)CCN(CC(=O)O)CC2)C(N)=O)NC(=O)[C@H](CC(=O)O)NC(=O)[C@H](Cc2cnc[nH]2)NC(=O)[C@H](Cc2ccc(C(F)(F)F)cc2)NC(=O)[C@H](CC(N)=O)NC(=O)[C@H](CC(N)=O)NC1=O)[C@@H](C)O [compound 152, Ac-(5Fluoro-W)-T-(2CF3-F)-C(3)-N-N-(4CF3-F)-H-D-C(3)-(7Aza-W)-(trans4Fluoro-P)-[D-Lys(DOTA)]-NH2] (Ac-[Trp(5-F)]T[Phe(2-CF3)]CNN[Phe(4-CF3)]HDC[Trp(7-aza)][Pro(trans-4-F)][dK](DOTA)-NH2; disulfide 4-10)",1 to 10
4,"CC(=O)N[C@@H](Cc1c[nH]c2ccccc12)C(=O)N[C@H](C(=O)N[C@@H](CC1CCCCC1)C(=O)N[C@H]1CSSC[C@@H](C(=O)N[C@@H](Cc2c[nH]c3ncccc23)C(=O)N2CCC[C@H]2C(=O)N[C@H](CCCCNC(=O)CN2CCN(CC(=O)O)CCN(CC(=O)O)CCN(CC(=O)O)CC2)C(N)=O)NC(=O)[C@H](CC(=O)O)NC(=O)[C@H](Cc2cnc[nH]2)NC(=O)[C@H](Cc2ccc3ccccc3c2)NC(=O)[C@H](CC(N)=O)NC(=O)[C@H](C)NC1=O)[C@@H](C)O [compound 195, Ac-W-T-(CHA)-C(3)-A-N-(2Nal)-H-D-C(3)-(7-Aza-W)-P-[D-Lys(DOTA)]-NH2] (Ac-WT[Cha]CAN[2Nal]HDC[Trp(7-aza)]P[dK](DOTA)-NH2; disulfide 4-10)",< 1
5,"CCC(CC)[C@H](NC(=O)[C@@H](NC(=O)[C@H](Cc1c[nH]c2ccccc12)NC(C)=O)[C@@H](C)O)C(=O)N[C@H]1CSSC[C@@H](C(=O)N[C@@H](Cc2c[nH]c3ncccc23)C(=O)N2CCC[C@H]2C(=O)N[C@H](CCCCNC(=O)CN2CCN(CC(=O)O)CCN(CC(=O)O)CCN(CC(=O)O)CC2)C(N)=O)NC(=O)[C@H](CC(=O)O)NC(=O)[C@H](Cc2cnc[nH]2)NC(=O)[C@H](Cc2ccc3ccccc3c2)NC(=O)[C@H](CC(N)=O)NC(=O)[C@H](C)NC1=O [compound 196, Ac-W-T-(Env)-C(3)-A-N-(2Nal)-H-D-C(3)-(7-Aza-W)-P-[D-Lys(DOTA)]-NH2] (Ac-WT[Nva(3-Et)]CAN[2Nal]HDC[Trp(7-aza)]P[dK](DOTA)-NH2; disulfide 4-10)",< 1
